Test results reported in US4652646A, “Thiazolo[3,2-a][1,2,3]triazolo[4,5-d]pyrimidine and [1,3,4]thiadiazolo[3,2-a][1,2,3]triazolo[4,5-d]pyrimidine derivatives” (Daiichi Seiyaku Co., Ltd., priority 1984, dated 1987).

Columns and labels:
[1] = test system: release of histamine induced by passive peritoneal anaphylaxis (PPA) reaction; assay: Passive Peritoneal Anaphylaxis (PPA) test: inhibition of histamine release; format: in vivo, Sprague-Dawley male rats; conditions: ip, 5 min; rat PPA; 1 mg/kg intraperitoneally 30 seconds before egg albumin
Experimental: (§1) 1 mg of egg albumin dissolved in 0.2 ml of saline was intramuscularly administered to each of Sprague-Dawley male rats weighing 300 to 350 g (Charles River Japan Inc.), and then 1 ml of a suspension of sterilized Bordetella pertussis (2×10^10 cells) in saline was administered intraperitoneally to the rats. After 14 days, blood was drawn from the rats to obtain an antiserum.
(§2) The test was conducted according to the method of Orange et al [Orange, R. P., Stechschulte, D. J., Austen, K. F., J. Immunol., 105, pp1087-1095 (1970)]. Sprague-Dawley male rats weighing 250 to 400 g (5 rats per group) were passively sensitized by administering 5 ml of 5-fold dilution antiserum (prepared by diluting the above antiserum with saline). 2 hours later, 5 ml of an egg albumin solution prepared by dissolving 2 mg of egg albumin in phosphate buffered saline containing 0.9 mM of calcium chloride was administered intraperitoneally to the rats. After 5 minutes, the rats were sacrificed by decapitation, and peritoneal fluid was pooled and centrifuged at 300×G at 4° C. for 10 minutes. Then, amounts of SRS-A and histamine in the supernatant were determined.
The quantitative determination of histamine was carried out according to the method of Shore et al [Shore, P. A., Bunkhalter, A. H., Cohn, V. H., J. Pharmacol. Exp. Ther., 127, pp182-186 (1959)], and the total released amount of histamine per rat (μg/rat) was calculated.
(§3) In this test, the test compound of this invention was administered as follows. 2 mg of a test compound was dissolved in 10 ml of phosphate buffered saline containing 0.9 mM of calcium chloride, an equimolar amount of sodium hydroxide to test compound, 2% of dimethyl sulfoxide and 2% of ethanol, and the solution was administered intraperitoneally to the rats at a dose of 1 mg/kg 30 seconds before the injection of egg albumin for inducing PPA. For a control group, the same solution without test compound and sodium hydroxide was administered.
(§4) The inhibitory activity on release of histamine and SRS-A by the PPA reaction in the treated group was calculated by the following formula: [formula] wherein: a represents a mean value of released amount in the control group.
(§5) b represents a mean value of released amount in the treated group.
(§6) c represents a mean value of spontaneously released amount.

[2] = test system: release of SRS-A induced by passive peritoneal anaphylaxis (PPA) reaction; assay: Passive Peritoneal Anaphylaxis (PPA) test: inhibition of SRS-A release; format: in vivo, Sprague-Dawley male rats; conditions: rat PPA
Experimental: as §1, §2
The quantitative determination of SRS-A was carried out according to the method of Stechschulte et al [Stechschulte, D. J., Auste, K. F., Bloch, K. J., J. Exp. Med., 125, pp127-147 (1967)] using a guinea pig ileum specimen in the presence of mepyramine and atropine. The amount of SRS-A was expressed in terms of unit, i.e., one unit of SRS-A activity was defined as the concentration required to produce a contraction of guinea pig ileum equal in amplitude to that produced by 5 ng of histamine, and the total released amount of SRS-A per rat (unit/rat) was calculated.
as §3, §4, §5, §6

[3] = background art; cited from earlier work
[4] = test system: passive cutaneous anaphylaxis (PCA) reaction; assay: Passive cutaneous anaphylaxis (PCA) test; format: in vivo, Sprague-Dowley male rats; conditions: rat PCA, oral administration
Experimental: as §1
In this test, the antiserum described in Test Example 1 was used after it was diluted with saline so as to provide a blue spot having a diameter of about 10 mm in the following control group.
Sprague-Dowley male rats weighing about 180 g (5 rats per group) were sensitized by injecting 0.05 ml of the diluted antiserum into the shaved dorsal skin. 48 hours later, the animals were challenged with 1 ml of saline containing 5 mg of egg albumin and 5 mg of Evans blue dye administered via a tail vein. 30 minutes later, the rats were sacrificed by decapitation. The dorsal skin was removed, and the long and short axis of the each wheal was measured.
In this test, the test compound was administered as follows. 20 mg of a test compound was suspended in a 0.5% CMC aqueous solution, and the suspension was administered to each of the rats in an amount of 20 mg/kg 30 minutes before the antigen challenge. For a control group, only a 0.5% CMC solution was administered.
The inhibitory activity on the PCA reaction in the treated group was calculated by the following formula: [formula] wherein: a represents a mean value of blue spot area in the control group.
b represents a mean value of blue spot area in the treated group.

[5] = test system: passive cutaneous anaphylaxis (PCA) reaction; assay: Passive cutaneous anaphylaxis (PCA) test; format: in vivo, Sprague-Dowley male rats; conditions: 0.5 h; rat PCA; DSCG administered at 100 mg/kg of body weight

O=C(O)c1cc(=O)c2c(OCC(O)COc3cccc4oc(C(=O)O)cc(=O)c34)cccc2o1 [DSCG, Sodium Cromoglycate, reference compound]
inhibition in vivo at 1 mg/kg [1]: 93% | inhibition in vivo at 1 mg/kg ([2]; ip, 5 min, 1 mg/kg intraperitoneally 30 seconds before egg albumin): 0% | inhibition of release of SRS-A in the PPA reaction (in words) [2]: did not inhibit the release of SRS-A in the PPA reaction | effectiveness in oral administration (in words) [3]: not effective in oral administration | inhibition of the PCA reaction in oral administration (in words) [4]: did not inhibit the PCA reaction in oral administration | inhibition in vivo at 100 mg/kg [5]: 8%
